According to patent publication US20050180956A1, “SSAO enzyme substrates for vasorelaxation, and methods of use thereof” (priority 2004, published 2005):
Like-named read-outs stand apart in the source and are kept apart here.

How the values were obtained:
[1] = test system: human left internal mammary artery (LIMA)
[2] = test system: human left internal mammary artery (LIMA); assay: Vascular ring physiology, isolated human left internal mammary artery rings; details: for response in HI K+-precontracted LIMA, % of HI K+ tension (contraction): n=9,3,6; for EC50: Homo sapiens; for % Response, contraction (C), LIMA / % Response, relaxation (R), LIMA: NE-precontracted (1 μM) LIMA, 10 min exposure to 1 mmol/L, percentage change of NE-precontraction tension; for effect of pretreatment on MA-induced relaxation: L-NAME 200 μmol/L and/or INDO 100 μmol/L
[3] = biological target: homogenized rat aortic SSAO activity (Rattus norvegicus, UniProt O08590); details: read-out: Km for homogenized rat aortic SSAO activity; cited from earlier work
[4] = biological target: SSAO of human cerebral microvessels (Homo sapiens, UniProt Q16853); details: read-out: Km, human cerebral microvessels; cited from earlier work
human radial artery (RA) = assay: Vascular ring physiology, isolated human radial artery rings
[5] = biological target: SSAO of human umbilical artery (Homo sapiens, UniProt Q16853); details: read-out: Km, human umbilical artery; cited from earlier work
cGMP level in human LIMA = assay: cGMP ELISA assay in LIMA segments; details: NE-precontracted LIMA, MA 1 mmol/L, 30-40 min, control 0.128 ± 0.034
humans = details: cited from earlier work
[6] = biological target: T1, SSAO activity in homogenized human LIMA (Homo sapiens, UniProt Q16853); assay: Radiometric SSAO assay (14C-benzylamine), homogenized LIMA; format: biochemical; details: homogenate preincubated 20 min, 37° C.; n=25
T1 construct: Blood vessel segments were homogenized in Sorensen's Na^+/K^+-phosphate buffered solution; from tissue; host or cells: human left internal mammary artery (LIMA), supernatant of homogenate
T1 sequence (Q16853 1-763): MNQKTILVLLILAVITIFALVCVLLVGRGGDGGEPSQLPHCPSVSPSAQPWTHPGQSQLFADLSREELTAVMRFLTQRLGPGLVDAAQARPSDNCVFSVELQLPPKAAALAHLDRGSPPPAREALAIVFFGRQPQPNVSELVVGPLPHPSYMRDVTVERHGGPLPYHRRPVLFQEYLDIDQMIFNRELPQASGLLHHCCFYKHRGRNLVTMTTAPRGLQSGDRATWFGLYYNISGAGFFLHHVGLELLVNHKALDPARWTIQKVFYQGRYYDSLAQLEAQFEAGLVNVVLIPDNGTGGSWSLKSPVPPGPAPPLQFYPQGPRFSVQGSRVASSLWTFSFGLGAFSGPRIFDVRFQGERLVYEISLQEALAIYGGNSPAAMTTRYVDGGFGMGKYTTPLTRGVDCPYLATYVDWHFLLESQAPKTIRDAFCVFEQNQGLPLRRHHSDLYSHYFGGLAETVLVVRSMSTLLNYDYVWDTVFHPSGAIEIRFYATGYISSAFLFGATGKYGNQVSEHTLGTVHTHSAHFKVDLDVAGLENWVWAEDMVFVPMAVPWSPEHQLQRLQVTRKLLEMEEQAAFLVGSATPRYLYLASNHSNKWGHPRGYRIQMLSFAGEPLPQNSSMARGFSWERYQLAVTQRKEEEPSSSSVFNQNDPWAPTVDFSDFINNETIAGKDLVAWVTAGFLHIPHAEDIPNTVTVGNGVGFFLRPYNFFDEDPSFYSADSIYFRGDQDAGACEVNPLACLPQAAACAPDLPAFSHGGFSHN

[7] = biological target: T2, SSAO activity in homogenized human RA (Homo sapiens, UniProt Q16853); assay: Radiometric SSAO assay (14C-benzylamine), homogenized RA; format: biochemical; details: homogenate preincubated 20 min, 37° C.; n=10
T2 construct: Blood vessel segments were homogenized in Sorensen's Na^+/K^+-phosphate buffered solution; from tissue; host or cells: human radial artery (RA), supernatant of homogenate
T2 sequence (Q16853 1-763): T1 sequence (Q16853 1-763)

[8] = biological target: T3, SSAO in human saphenous vein (Homo sapiens, UniProt Q16853); details: read-out: IC50 of SSAO inhibition in human saphenous vein, literature; cited from earlier work
T3 sequence (Q16853 1-763): T1 sequence (Q16853 1-763)

[9] = biological target: T4, SSAO activity in homogenized human RSV (Homo sapiens, UniProt Q16853); assay: Radiometric SSAO assay (14C-benzylamine), homogenized RSV; format: biochemical; details: homogenate preincubated 20 min, 37° C.; n=5
T4 sequence (Q16853 1-763): T1 sequence (Q16853 1-763)

[10] = read-out: Apparent EC50, contraction (C), LIMA
[11] = read-out: Apparent EC50, relaxation (R), LIMA
[12] = NE-precontracted LIMA, repeated methylamine exposure, n=5

homogenized rat aortic SSAO activity, sequence (O08590 whole entry): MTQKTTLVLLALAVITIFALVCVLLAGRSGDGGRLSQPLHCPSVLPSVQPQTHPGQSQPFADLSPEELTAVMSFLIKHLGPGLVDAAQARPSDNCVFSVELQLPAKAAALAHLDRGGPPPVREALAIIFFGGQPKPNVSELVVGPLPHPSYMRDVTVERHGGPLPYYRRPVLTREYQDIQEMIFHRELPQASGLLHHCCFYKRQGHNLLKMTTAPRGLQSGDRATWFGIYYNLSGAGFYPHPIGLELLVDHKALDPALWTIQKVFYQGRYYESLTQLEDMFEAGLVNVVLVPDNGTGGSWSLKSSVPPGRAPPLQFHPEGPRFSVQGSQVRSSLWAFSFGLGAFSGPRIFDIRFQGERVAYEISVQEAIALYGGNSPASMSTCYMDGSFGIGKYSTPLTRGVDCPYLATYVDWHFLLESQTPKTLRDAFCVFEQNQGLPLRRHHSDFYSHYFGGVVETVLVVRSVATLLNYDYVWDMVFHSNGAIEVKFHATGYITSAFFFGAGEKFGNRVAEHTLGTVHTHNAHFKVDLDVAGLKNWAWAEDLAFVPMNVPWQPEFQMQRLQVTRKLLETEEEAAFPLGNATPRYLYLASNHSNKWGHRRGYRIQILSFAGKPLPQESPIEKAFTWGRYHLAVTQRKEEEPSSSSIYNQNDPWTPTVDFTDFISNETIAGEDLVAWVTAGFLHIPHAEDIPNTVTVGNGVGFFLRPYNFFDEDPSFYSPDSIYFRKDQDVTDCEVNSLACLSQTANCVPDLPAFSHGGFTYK

## CC(=O)OCC[N+](C)(C)C [ACh, acetylcholine]
[1]
  mean relaxation half time (t1/2), NE-precontracted LIMA: 1.07 ± 0.122 min
[2]; NE-precontracted LIMA, ACh 1 μmol/L, n=20, mean ± SE
  ACh-induced relaxation, ACh added after MA (post-MA ACh): 14±6%
[2]; NE-precontracted LIMA, ACh 1 μmol/L, n=21, mean ± SE
  ACh-induced relaxation, ACh added before MA (pre-MA ACh): 25±6%

## C=O [Formaldehyde, formaldehyde]
[2]; 1 mmol/L, 10 min, mean ± SE
  response in HI K+-precontracted LIMA, % of HI K+ tension (contraction): 12.9±2.4%
[2]; [10]
  EC50: 315 µM
[2]; [11]
  EC50: 315 µM
[2]; mean ± SE
  % Response, contraction (C), LIMA: 3.7 ± 3.7%
  % Response, relaxation (R), LIMA: 37.3 ± 18.6%

## OO [H2O2, hydrogen peroxide]
[2]; 1 mmol/L, 10 min, mean ± SE
  response in HI K+-precontracted LIMA, % of HI K+ tension (contraction): 21.1±7.7%
[2]; [10]
  EC50: 175 ± 58 µM
[2]; [11]
  EC50: 162 ± 41 µM
[2]; mean ± SE
  % Response, contraction (C), LIMA: 15.8 ± 5.3%
  % Response, relaxation (R), LIMA: 55.6 ± 9.0%

## COc1ccc2c(c1)c(CC(=O)O)c(C)n2C(=O)c1ccc(Cl)cc1 [INDO, indomethacin]
[2]; NE-precontracted LIMA, 20 min
  effect of pretreatment on MA-induced relaxation: neither INDO alone (100 μmol/L; 20 min) nor L-NAME+INDO pretreatment affected the MA-induced relaxation

## COC(=O)[C@@H](N)CCCNC(=N)N[N+](=O)[O-] [L-NAME, N^ω-nitro-L-arginine methyl ester]
[2]; L-NAME 200 μmol/L, 20 min, subset of LIMA rings with relatively strong ACh relaxation
  effect of pretreatment on ACh-induced relaxation: significantly inhibited the ACh-induced relaxation
[2]; NE-precontracted LIMA, 20 min
  effect of pretreatment on MA-induced relaxation: had no effect on MA-induced relaxation

## C=CCN [allylamine, reference compound]
[3]
  Km: 145 µM

## CN [methylamine]
[4]
  Km: 22 µM
[3]
  Km: 247 µM
[2]; 1 mmol/L, 10 min, mean ± SE
  response in HI K+-precontracted LIMA, % of HI K+ tension (contraction): 1.7±3.9%
[2]; [11]
  EC50: 230 ± 30 µM
[2]; LIMA n=7, ACh 1 μM after methylamine 1 mM 10 min (± SEMI 1 mM 15 min) and three PSS bath changes
  ACh relaxation after prior exposure, percentage reduction in HI K+ contraction: 20 ± 11%
[2]; LIMA n=7, HI K+ 100 mM after methylamine 1 mM 10 min (± SEMI 1 mM 15 min) and three PSS bath changes
  HI K+ contraction after prior exposure, percentage of control norepinephrine contraction: 102 ± 23%
[2]; LIMA n=7, SNP 100 μM after methylamine 1 mM 10 min (± SEMI 1 mM 15 min) and three PSS bath changes
  SNP relaxation after prior exposure, percentage reduction in HI K+ contraction: 90 ± 11%
[2]; LIMA, on average, regardless of order of addition
  methylamine relaxation relative to ACh-induced relaxation: > 2 times
[2]; mean ± SE
  % Response, contraction (C), LIMA: 0.6 ± 0.3%
  % Response, relaxation (R), LIMA: 55.4 ± 3.9%
[2]; NE-precontracted LIMA, repeated methylamine exposure, n=1
  % relaxation, 3rd relaxation: 82.1%
[2]; [12]
  % relaxation, 1st relaxation: 72.0±7.5%
  % relaxation, 2nd relaxation: 60.8±12.6%
[2]; NE-precontracted LIMA, 1 mmol/L, 10 min, n=9, mean ± SE
  % reduction of NE-contraction, methylamine post-NE: 61±5%
[2]; NE-precontracted LIMA, MA 1 mmol/L, 30-40 min, vessels with <50% relaxation (n=3)
  % Relaxation, LIMA, <50% relaxation subgroup: 34.1 ± 7.1%
[2]; NE-precontracted LIMA, MA 1 mmol/L, 30-40 min, vessels with >50% relaxation (n=6)
  % Relaxation, LIMA, >50% relaxation subgroup: 87.8 ± 5.0%
[2]; cumulative concentrations 1-1000 μM, uncontracted and NE-precontracted vessels pooled, mean ± SE
  Apparent EC50, contraction (C), LIMA: not observed
[2]; unstimulated LIMA exposed to 1 mmol/L, 10 min, before NE, n=5, mean ± SE
  % reduction of NE-contraction, methylamine pre-NE: 53±7%
cGMP level in human RSV
  [cGMP], RSV: 0.109 ± 0.030 pmol/mg
Human radial artery (RA); read-out: Apparent EC50, contraction (C), RA
  EC50: 65 ± 48 µM
Human radial artery (RA); read-out: Apparent EC50, relaxation (R), RA
  EC50: 280 ± 40 µM
[5]
  Km: 832 µM
cGMP level in human LIMA; vessels with <50% relaxation (n=3)
  [cGMP], LIMA, <50% relaxation subgroup: 0.067 ± 0.029 pmol/mg
cGMP level in human LIMA; vessels with >50% relaxation (n=6)
  [cGMP], LIMA, >50% relaxation subgroup: 0.227 ± 0.066 pmol/mg
humans; 35 persons hospitalized 7-8 hours post-exposure to spilled purified liquid methylamine
  fatalities after accidental exposure: 6
humans; of 35 people
  persons with light to deep coma after accidental exposure: 10 of 35

## NNC(N)=O [semicarbazide]
[6]
  IC50: 16.7 ± 19.5 µM
[2]; NE-precontracted LIMA, within 10 min of addition of 1 mmol/L semicarbazide, n=2
  mean % reversal of methylamine-induced relaxation: 63.0±15.8%
[2]; semicarbazide pretreatment 1 mmol/L, 15 min, no effect on NE contraction or ACh relaxation
  effect of pretreatment on methylamine-induced relaxation in LIMA: significantly reduced the methylamine-induced relaxation
[7]
  IC50: 21.2 ± 11.2 µM
[8]
  IC50: 500 µM
[9]
  IC50: 14.7 µM
